One data set has as its target T1, human SGLT2 (Homo sapiens, UniProt P31639).
T1 construct: expressed in transfected cells; host or cells: CHO-K1
T1 sequence (P31639 1-672): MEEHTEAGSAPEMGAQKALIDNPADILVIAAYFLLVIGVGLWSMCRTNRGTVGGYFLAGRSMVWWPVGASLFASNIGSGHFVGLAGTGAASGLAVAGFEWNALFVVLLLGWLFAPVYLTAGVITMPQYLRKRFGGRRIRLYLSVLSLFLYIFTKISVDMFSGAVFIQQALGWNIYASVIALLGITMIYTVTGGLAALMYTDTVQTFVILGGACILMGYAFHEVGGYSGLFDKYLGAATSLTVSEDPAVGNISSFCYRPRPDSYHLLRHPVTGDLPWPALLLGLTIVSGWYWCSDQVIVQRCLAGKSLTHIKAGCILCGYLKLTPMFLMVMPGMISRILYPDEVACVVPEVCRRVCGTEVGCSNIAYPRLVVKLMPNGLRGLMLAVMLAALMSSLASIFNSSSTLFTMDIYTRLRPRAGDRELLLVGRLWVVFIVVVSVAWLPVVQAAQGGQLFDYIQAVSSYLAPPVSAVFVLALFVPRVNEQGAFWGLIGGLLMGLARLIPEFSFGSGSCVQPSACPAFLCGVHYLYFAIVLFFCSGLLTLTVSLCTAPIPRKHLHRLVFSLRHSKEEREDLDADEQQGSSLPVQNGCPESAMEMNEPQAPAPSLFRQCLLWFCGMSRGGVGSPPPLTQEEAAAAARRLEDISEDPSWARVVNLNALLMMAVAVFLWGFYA
As to the kind of experiment: Inhibition of methyl-α-D-glucopyranoside intake in human SGLT2 stable expression CHO cells. As to conditions: methyl-α-D-(U-14C)glucopyranoside intake, 37° C., 45 minutes. The data set is classed as cell-based. As to the method:
Test for Confirming Action of Inhibiting Human Na^+-Glucose Co-Transporters (SGLT1 and SGLT2)
(2) Preparation of Human SGLT2 Expression Vector
PCR was performed by KOD+DNA polymerase by taking a human kidney-derived cDNA library (a product of Clontech) as a template with the use of a synthesized DNA primer to amplify human SGLT2 cDNA. […] From the proliferated E. coli, a plasmid was purified according to the usual way. By taking this plasmid as a template, PCR was performed by KOD+DNA polymerase with the use of a synthetic DNA primer into which restriction enzyme recognition sites had been introduced to amplify human SGLT2 cDNA (a fragment added with Xho I recognition site on the upstream side and a Hind III recognition site on the downstream side). This amplified fragment was subjected to Xho I and Hind III digestion to connect the digested fragments to their recognition sites of the expression vector pcDNA 3.1(−) with the use of the Rapid DNA Ligation kit. The connected expression vector was introduced into E. coli competent cells (DH5α) and proliferated in an ampicillin-containing LB medium to obtain a human SGLT2 expression vector according to the usual way.
(3) Preparation of Human SGLT1 Stable Expression Cell and Human SGLT2 Stable Expression Cell […]

The nature of data set [1]: Test for determining blood half-life in rat. As to conditions: iv; SD male rat, intravenously administered, dosage 10 mg/kg, plasma, LC-MS/MS, non-compartmental analysis, half-life in the final layer. The data set is classed as in vivo. As to the method:
Test for Determining Blood Half-Life in Rat
A test compound was intravenously administered to a SD male rat (8-weeks old, Japan SLC) and the blood was collected 2 minutes, 5 minutes, 15 minutes, 30 minutes, 1 hour, 2 hours, 4 hours, 6 hours and 8 hours after administration, respectively. The obtained blood was centrifuged to obtain plasma. The plasma sample (0.01 mL) and water (0.4 mL) were added to a tube added with an internal standard substance of phenyloin (250 ng), and diethyl ether (2 mL) was added thereto and the obtained solution was stirred for five minutes, and then centrifuged for 10 minutes and an organic layer was recovered and subjected to nitrogen dryness, and a mobile phase was added to the obtained solid to dissolve it and the resulting solution was taken as a sample for determination.
The sample for determination was injected into LC-MS/MS and determined under the following conditions. • Column: ODS (2.0×150 mm) • Mobile Phase Acetonitrile/10 mM ammonium acetate=4/6 (v/v) • Flow Rate: 0.2 mL/min • Amount of Sample Injected: 10 μL • Mass Analysis: ESI (+)
The plasma concentration obtained by the LC-MS/MS method was subjected to non-compartmental analysis with the use of the WinNonlin standard made by Pharsight Corporation to calculate pharmacokinetic parameters.

What is called IC50 is the point on the concentration scale where inhibition reaches its midpoint. The low end stands for inhibition by little substance, the high end for a need for much substance. As a reminder, the half-life is the time needed for the level to fall by half in the phase considered. A lower half-life goes with fast loss. Turning to `OC[C@H]1O[C@@H](c2cc(Cc3cc4ccccc4s3)cc3ccccc23)[C@H](O)[C@@H](O)[C@@H]1O` [Example 1, (2S,3R,4R,5S,6R)-2-[3-(Benzo[b]thiophen-2-ylmethyl)-naphthalen-1-yl]-6-hydroxymethyl-tetrahydropyran-3,4,5-triol], the IC50 on human SGLT2 was 18 nM. In data set [1], this compound showed a half-life of 8.21 h.

At human SGLT2, `Cc1ccc(Cc2cc([C@@H]3O[C@H](CO)[C@@H](O)[C@H](O)[C@H]3O)c3ccccc3c2)s1` [Example 8, (2R,3S,4R,5R,6S)-2-hydroxymethyl-6-[3-(5-methylthiophen-2-ylmethyl)naphthalen-1-yl]tetrahydropyran-3,4,5-triol] showed an IC50 of 18 nM.

For the origin of these results see patent publication US7943748B2, “Glucitol derivative, prodrug thereof and salt thereof, and therapeutic agent containing the same for diabetes” (Chugai Seiyaku Kabushiki Kaisha, priority 2004, dated 2011).
